Test results published in patent US7714134B2, “Compounds and use of tetrahydropyridothiophenes” (4SC AG, priority 2004, dated 2010).

What was measured:
[1] = tested on: RKO (RKOp27) human colon adenocarcinoma cells; test: Alamar Blue cell viability assay, anti-proliferative/cytotoxic activity, RKO p27 uninduced; assay type: cell-based; details: RKOp27, 72 h, proliferating cells, absence of the inducer Ponasterone A, 72 hours incubation
Summary of the method: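 RKOp27 colon adenocarcinoma subclones, uninduced, seeded at 4000 cells/well and treated 24 h later with semi-log compound dilutions in DMEM with 10% FCS, in quadruplicate. After 72 h at 37 °C, 5% CO2, viability read by Alamar Blue fluorescence (544/590 nm) relative to untreated cells; IC50 taken from concentration-effect curves.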

[2] = tested on: RKO colon adenocarcinoma cells (RKOp27) arrested by expression of ectopic p27Kip1; test: Alamar Blue cell viability assay, cell cycle specific mode of action, RKO p27 induced (arrested by Ponasterone A-induced p27Kip1); assay type: cell-based; details: Homo sapiens, RKOp27, 72 h, cells arrested by p27Kip1 induced with 10 μM Ponasterone A, 72 hours incubation
Summary of the method: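 RKOp27 cells were seeded at 16000 per well in DMEM/10% FCS with 10 μM Ponasterone A to induce p27Kip1 arrest, then given compound dilutions 24 h later for 72 h at 37 °C. Viability was read by Alamar Blue fluorescence (544/590 nm) as % of untreated cells. Arrested cells were compared with proliferating cells grown without inducer.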

IC50 [2]	Compound	IC50 [1]
80 µM	CCCC(=O)N1CCc2c(sc(NC(=O)c3ccccc3)c2C#N)C1 [Compound 5]	≤ 2 µM
> 100 µM	N#Cc1c(NC(=O)c2ccccc2)sc2c1CCN(C(=O)OCCn1ccnc1)C2 [Compound 95]	≤ 3 µM
> 60 µM	CC1(C)OCC(COC(=O)N2CCc3c(sc(NC(=O)c4ccccc4)c3C#N)C2)O1 (stereo not shown) [Compound 74, 3-Cyano-2-[(1-phenyl-methanoyl)-amino]-4,7-dihydro-5H-thieno[2,3-c]pyridine-6-carboxylic acid 2,2-dimethyl-[1,3]dioxolan-4-ylmethyl ester]	≤ 3 µM

Continued, compound first:

Compound	IC50 [2]	IC50 [1]
N#Cc1c(NC(=O)c2ccccc2)sc2c1CCN(C(=O)OCCCc1ccccn1)C2 [Compound 71, 3-Cyano-2-[(1-phenyl-methanoyl)-amino]-4,7-dihydro-5H-thieno[2,3-c]pyridine-6-carboxylic acid 3-pyridin-2-yl-propyl ester]	> 60 µM	≤ 3 µM
COC(=O)CCSC(=O)N1CCc2c(sc(NC(=O)c3ccccc3)c2C#N)C1 [Compound 102, 3-(1{3-Cyano-2-[(1-phenyl-methanoyl)-amino]-4,7-dihydro-5H-thieno[2,3-c]pyridin-6-yl}-methanoylsulfanyl)-propionic acid methyl ester]	> 100 µM	≤ 3 µM
N#Cc1c(NC(=O)c2ccccc2)sc2c1CCN(C(=O)OCc1ccccc1)C2 [Compound 61, 3-Cyano-2-[(1-phenyl-methanoyl)-amino]-4,7-dihydro-5H-thieno[2,3-c]pyridine-6-carboxylic acid benzyl ester]	> 60 µM	≤ 3 µM
N#Cc1c(NC(=O)c2ccccc2)sc2c1CCN(C(=O)CO)C2 [Compound 87, N-[3-Cyano-6-(2-hydroxy-ethanoyl)-4,5,6,7-tetrahydro-thieno[2,3-c]pyridin-2-yl]-benzamide]	> 100 µM	≤ 3 µM
CCOC(=O)N1CCc2c(sc(NC(=O)c3ccccc3C)c2C#N)C1 [Compound 52, 3-Cyano-2-[(1-o-tolyl-methanoyl)-amino]-4,7-dihydro-5H-thieno[2,3-c]pyridine-6-carboxylic acid ethyl ester]	> 60 µM	≤ 3 µM
